Experiments:
Type in all cases: in vivo
[1] = tested on: black nightshade (Solanum nigrum L.); experiment: Test Example 31: pot, soil treatment, metobromuron + thiobencarb; conditions: soil, read-out: Growth inhibition rate of black nightshade (%) Measured value
Source text: (§1) When the herbicidal activity in a case where two active ingredients are combined, is larger than the simple sum of the respective herbicidal activities of the two active ingredients (the expected activity), it is called a synergistic effect. The activity expected by the combination of two active ingredients can be calculated as follows (Colby S. R., “Weed”, vol. 15, p. 20-22, 1967). E=α+β−(α×β[…]) where α: growth inhibition rate when treated with x (g/ha) of herbicide X, • β: growth inhibition rate when treated with y (g/ha) of herbicide Y, • E: growth inhibition rate expected when treated with x (g/ha) of herbicide X and y (g/ha) of herbicide Y.
(§2) On the 19th day after treatment, the state of growth of barnyardgrass was visually observed and evaluated in accordance with the following standards. The growth inhibition rate (%) [measured value] and the growth inhibition rate (%) [calculated value] calculated by the Colby's method, are shown in Table 2.
(§3) Growth inhibition rate (%)=inhibition rate) (%) of 0 (equivalent to the non-treated area) to 100 (complete kill)
Soil was put into a 1/300,000 ha pot, and seeds of common lambsquarters (Chenopodium album L.) were sown. On the day after seeding, predetermined amounts of SC containing metobromuron as active ingredient (same as in Test Example 1) and EC containing thiobencarb as active ingredient (trade name: Saturn NYUZAI, manufactured by KUMIAI CHEMICAL INDUSTRY Co., Ltd.) were diluted with water corresponding to 1,000 L per hectare and applied for soil treatment.
On the 20th day after treatment, the state of growth of common lambsquarters was visually observed and evaluated in the same manner as in Test Example 1.
The test was carried out in the same manner as in Test Example 30 except that common lambsquarters (Chenopodium album L.) was changed to black nightshade (Solanum nigrum L.), to obtain the results as shown in Table 32.

[2] = tested on: black nightshade (Solanum nigrum L.); experiment: Test Example 17: pot, soil treatment, metobromuron + chlorpropham; conditions: soil, read-out: Growth inhibition rate of black nightshade (%) Measured value
Source text: as §1, §2, §3
Soil was put into a 1/300,000 ha pot, and seeds of barnyardgrass (Echinochloa crus-galli L.) were sown. On the day after seeding, predetermined amounts of SC containing metobromuron as active ingredient (same as in Test Example 1) and EC containing chlorpropham as active ingredient (same as in Test Example 1) were diluted with water corresponding to 1,000 L per hectare and applied for soil treatment.
On the 21st day after treatment, the state of growth of barnyardgrass was visually observed and evaluated in the same manner as in Test Example 1.
The test was carried out in the same manner as in Test Example 15 except that barnyardgrass (Echinochloa crus-galli L.) was changed to black nightshade (Solanum nigrum L.), to obtain the results as shown in Table 18.

[3] = tested on: black nightshade (Solanum nigrum L.); experiment: Test Example 23: pot, soil treatment, metobromuron + fluazifop-P-butyl; conditions: Solanum nigrum, soil, read-out: Growth inhibition rate of black nightshade (%) Measured value
Source text: as §1, §2, §3
Soil was put into a 1/300,000 ha pot, and seeds of black nightshade (Solanum nigrum L.) were sown. […]
On the 20th day after treatment, the state of growth of black nightshade was visually observed and evaluated in the same manner as in Test Example 1.

[4] = tested on: Oriental lady's thumb (Persicaria longiseta); experiment: Test Example 7: common bean field, soil treatment, metobromuron + trifluralin; conditions: soil, read-out: Growth inhibition rate of Oriental lady's thumb (%) Measured value
Source text: as §1, §2
(§4) Growth inhibition rate (%)=inhibition rate) (%) of 0 (equivalent to the non-treated area) to 100 (complete kill) […]
On the 49th day after treatment, the state of growth of Oriental lady's thumb (Persicaria longiseta) which occurred naturally, was visually observed and evaluated in the same manner as in Test Example 1.

[5] = tested on: barnyardgrass (Echinochloa crus-qalli L.); experiment: Test Example 4: soybean field, soil treatment, metobromuron + trifluralin; conditions: soil, read-out: Growth inhibition rate of barnyardgrass (%) Measured value
Source text: as §1, §2, §4
On the 50th day after treatment, the state of growth of barnyardgrass (Echinochloa crus-qalli L.) which occurred naturally, was visually observed and evaluated in the same manner as in Test Example 1.

[6] = tested on: common lambsquarters (Chenopodium album L.); experiment: Test Example 24: pot, soil treatment, metobromuron + trifluralin; conditions: soil, read-out: Growth inhibition rate of common lambsquarters (%) Measured value
Source text: as §1, §2, §3
Soil was put into a 1/300,000 ha pot, and seeds of common lambsquarters (Chenopodium album L.) were sown. On the day after seeding, predetermined amounts of SC containing metobromuron as active ingredient (same as in Test Example 1) and EC containing trifluralin as active ingredient (same as in Test Example 4) were diluted with water corresponding to 1,000 L per hectare and applied for soil treatment.
On the 21st day after treatment, the state of growth of common lambsquarters was visually observed and evaluated in the same manner as in Test Example 1.

[7] = tested on: common lambsquarters (Chenopodium album L.); experiment: Test Example 8: corn field, soil treatment, metobromuron + S-metolachlor; conditions: soil, read-out: Growth inhibition rate of common lambsquarters (%) Measured value
Source text: as §1, §2, §4
On the 28th day after treatment, the state of growth of common lambsquarters (Chenopodium album L.) which occurred naturally, was visually observed and evaluated in the same manner as in Test Example 1.

[8] = tested on: redroot pigweed (Amaranthus retroflexus L.); experiment: Test Example 9: corn field, soil treatment, metobromuron + S-metolachlor; conditions: soil, read-out: Growth inhibition rate of redroot pigweed (%) Measured value
Source text: as §1, §2, §4
On the 49th day after treatment, the state of growth of redroot pigweed (Amaranthus retroflexus L.) which occurred naturally, was visually observed and evaluated in the same manner as in Test Example 1.

[9] = tested on: barnyardgrass (Echinochloa crus-qalli L.); experiment: Test Example 1: soybean field, soil treatment, metobromuron + chlorpropham; conditions: soil, read-out: Growth inhibition rate of barnyardgrass (%) Measured value
Source text: When the herbicidal activity in a case where two active ingredients are combined, is larger than the simple sum of the respective herbicidal activities of the two active ingredients (the expected activity), it is called a synergistic effect. The activity expected by the combination of two active ingredients can be calculated as follows (Colby S. R., “Weed”, vol. 15, p. 20-22, 1967). E=α+β−(α×β[…]) where α: growth inhibition rate when treated with x (g/ha) of herbicide X, • β: growth inhibition rate when treated with y (g/ha) of herbicide Y, • E: growth inhibition rate expected when treated with x (g/ha) of herbicide X and y (g/ha) of herbicide Y. […]
as §2, with “2. […]” for “2.”

CON(C)C(=O)Nc1ccc(Br)cc1 [Metobromuron, 3-(4-bromophenyl)-1-methoxy-1-methylurea]
inhibition at 375 g/ha [1]: 65%
inhibition at 562.5 g/ha [1]: 76%
inhibition at 1000 g/ha [2]: 78%
inhibition at 750 g/ha [3]: 85%
inhibition at 1500 g/ha [4]: 10%
inhibition at 1000 g/ha [5]: 30%
inhibition at 375 g/ha [6]: 50%
inhibition at 1000 g/ha [7]: 78%
inhibition at 1000 g/ha [8]: 25%
inhibition at 1000 g/ha [9]: 58%
